Here are results for 5 compounds from US20230203099A1, “CYCLOPHILIN INHIBITORS AND USES THEREOF” (priority 2020, published 2023).

Read-outs that look alike come from different tables or passages of the source.

One assay addresses Human CypD (Homo sapiens, UniProt P30405). Put plainly: Cyclophilin peptidyl-prolyl isomerase functional assay (PPIase), cyclophilin D. It counts as biochemical.
A further assay deals with permeabilized HepG2. Put plainly: Calcium retention capacity (CRC) assay in permeabilized HepG2. It counts as cell-based. Conditions: Homo sapiens.
Assay [1] addresses recombinant Calcineurin (CaN) (Homo sapiens, UniProt P63098+Q08209). In words: Calcineurin phosphatase inhibition assay without cyclophilin A. The class given is biochemical.
Description: (§1) Cyclophilin A and D peptidyl-prolyl isomerase functional assays using human recombinant enzymes (PPlase assay), as well as in a calcineurin inhibition assay with and without cyclophilin A are conducted.
(§2) The compounds are supplied as a dry powder or oils and made up as a 10 mM stock solution in 100% DMSO. Subsequent dilutions were made in 100% DMSO for use in all assays.
(§3) Calcineurin Phosphatase Inhibition Assay With and Without Cyclophilin A
(§4) This colorimetric 96 well assay is designed for inhibitor screening of recombinant Calcineurin (CaN). […] In a 96-well plate, two dilution series are prepared, one with the cyclophilin A enzyme (7-point) and another without (4-point). An assay buffer/calcineurin/calmodulin master mix is added followed by the phosphopeptide substrate (RII). After incubation at 30° C. the reaction is stopped by the addition of malachite green/molybdate reagent. The coloured complex formed with liberated phosphate is quantified by reading the absorbance at 620 nm. The blank corrected data was plotted against inhibitor concentration to determine an IC50 value.
Assay [2] concerns the target recombinant Calcineurin (CaN) + CypA (Homo sapiens, UniProt P62937+P63098+Q08209). Put plainly: Calcineurin phosphatase inhibition assay with cyclophilin A. It counts as biochemical. Conditions: RII phosphopeptide substrate.
Description: as §1, §2, §3, §4
A further assay addresses Human CypA (Homo sapiens, UniProt P62937). In words: Cyclophilin peptidyl-prolyl isomerase functional assay (PPIase), cyclophilin A. It counts as biochemical. Conditions: human recombinant enzyme, 10° C.; read-out: Inhibition (Ki, nM) Human CypA.
Where [3] appears, read: human recombinant enzyme, 10° C., read-out: Inhibition (Ki, nM) Human CypD.
Where [4] appears, read: permeabilized HepG2, Calcium Green 5N, read-out: Calcium Retention Capacity EC50.
The mark [5] stands for this setting: without cyclophilin A, RII phosphopeptide substrate, read-out: Calcineurin Inhibition (IC50, nM) −CypA.

Sequence of recombinant Calcineurin (CaN) (P63098 whole entry, other chains not shown): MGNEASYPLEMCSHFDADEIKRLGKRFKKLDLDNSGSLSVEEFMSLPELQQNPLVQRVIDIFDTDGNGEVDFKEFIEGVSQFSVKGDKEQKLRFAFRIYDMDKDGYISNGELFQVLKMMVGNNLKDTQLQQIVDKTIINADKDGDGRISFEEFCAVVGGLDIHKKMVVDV
Sequence of Human CypD (P30405 30-207): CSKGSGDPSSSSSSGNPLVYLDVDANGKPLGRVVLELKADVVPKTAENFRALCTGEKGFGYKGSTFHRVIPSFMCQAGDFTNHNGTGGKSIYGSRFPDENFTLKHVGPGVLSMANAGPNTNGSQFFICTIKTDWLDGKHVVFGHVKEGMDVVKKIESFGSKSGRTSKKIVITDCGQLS
Sequence of Human CypA (P62937 whole entry): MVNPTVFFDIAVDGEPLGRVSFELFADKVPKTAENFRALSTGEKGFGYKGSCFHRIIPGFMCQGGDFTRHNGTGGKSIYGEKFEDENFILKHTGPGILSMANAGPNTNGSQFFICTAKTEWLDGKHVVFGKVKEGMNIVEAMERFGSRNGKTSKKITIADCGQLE
Sequence of recombinant Calcineurin (CaN) + CypA (P62937 whole entry, other chains not shown): as the sequence (P62937 whole entry) above
Sequence of recombinant Calcineurin (CaN) + CypA (P63098 whole entry, other chains not shown): as the sequence (P63098 whole entry, other chains not shown) above
Description for Human CypA: as §1, §2
(§5) Cyclophilin Peptidyl-Prolyl Isomerase Functional Assay
(§6) Measurements are performed using an Agilent 8453 spectrophotometer. Assay buffer was cooled to 10° C. (with stirring) in a precision glass cuvette and inhibitor is added from a DMSO stock solution to afford a final concentration of <1% DMSO. A blank spectrum is obtained and then enzyme and substrate are added and the change in absorbance measured over 5 min. A first order rate is fitted to the absorbance data to obtain a rate constant (first 10 to 15 s were eliminated due to mixing). The catalytic rate is calculated from the enzymatic rate minus the background rate. The enzymatic rate constant, determined in duplicate at each inhibitor concentration, is plotted against inhibitor concentration and a non-linear fit by SigmaPlot generated a Ki.
Description for Human CypD: as §1, §2, §5, §6
Description for permeabilized HepG2: The compounds are also tested in a calcium retention capacity (CRC) assay in permeabilized HepG2.
as §2
Calcium Retention Capacity (CRC) Assay in Permeabilized HepG2
HepG2 cells are permeabilised with 100 μM digitonin for 10 min in ice cold buffer containing 1 mM EGTA. Following two wash steps to remove the digitonin, the cells are plated into 96 well black and clear plates at 1e^6 cell per well in 180 μL assay buffer containing 0.5 μM Calcium Green 5N. Compounds dilutions are made in DMSO to 1000-fold the final concentration, diluted 1:100 in assay buffer and added to the assay as 20 μL per well. The assay buffer contained 5 mM glutamate and 2.5 mM malate. The cell plate is immediately run on the FLIPR Tetra™ which added 5 μL of 200 μM (5 μM) calcium chloride every 5 minutes whilst reading the plate every 3 seconds. The area under the curve at each concentration of compound is calculated. EC50 values are calculated.
The assay as described above measures the loss of inhibition based on the release of calcium, which is determined by increased intensity of fluorescence reporting of the calcium-binding dye used in the assay.

As usually defined, the Ki is a measure of affinity in units of concentration, obtained from inhibition or displacement. Usually EC50 stands for the concentration giving half of the maximal effect. The IC50 is the concentration that gives 50% inhibition. Turning to `CC[C@@H]1NC(=O)[C@H]([C@H](O)[C@H](C)C/C=C/c2ccc(C)cc2)N(C)C(=O)[C@H](C(C)C)N(C)C(=O)[C@H](CC(C)C)N(C)C(=O)[C@H](CC(C)C)N(C)C(=O)[C@@H](C)NC(=O)[C@H](C)NC(=O)[C@H](CC(C)C)N(C)C(=O)[C@H](C(C)C)NC(=O)[C@H](CC(C)C)N(C)C(=O)C(OCCN(C)C)N(C)C1=O` (some centres unmarked) [Compound 2], at Human CypD, the inhibition constant (Ki) is 11 nM. Further, the EC50 in the assay with permeabilized HepG2 (HepG2, read-out: Calcium Retention Capacity EC50 (nM)) amounted to 512 nM. Also, the half-maximal inhibitory concentration (IC50) in assay [1] was determined as 3950 nM.
Consider `CC[C@@H]1NC(=O)[C@H]([C@H](O)[C@H](C)C/C=C/c2ccc(C(F)(F)F)cc2)N(C)C(=O)[C@H](C(C)C)N(C)C(=O)[C@H](CC(C)C)N(C)C(=O)[C@H](CC(C)C)N(C)C(=O)[C@@H](C)NC(=O)[C@H](C)NC(=O)[C@H](CC(C)C)N(C)C(=O)[C@H](C(C)C)NC(=O)[C@H](CC(C)C)N(C)C(=O)C(OCCN(C)C)N(C)C1=O` (some centres unmarked) [Compound 3], for which the inhibitory constant (Ki) on Human CypD (setting [3]) stood at 9.4 nM. Moreover, the EC50 in the assay on permeabilized HepG2 (setting [4]) was determined as 1370 nM. In assay [1] (setting [5]), the IC50 is above 10000 nM.
As to `CC[C@@H]1NC(=O)[C@H]([C@H](O)[C@H](C)C/C=C/c2cccs2)N(C)C(=O)[C@H](C(C)C)N(C)C(=O)[C@H](CC(C)C)N(C)C(=O)[C@H](CC(C)C)N(C)C(=O)[C@@H](C)NC(=O)[C@H](C)NC(=O)[C@H](CC(C)C)N(C)C(=O)[C@H](C(C)C)NC(=O)[C@H](CC(C)C)N(C)C(=O)C(OCCN(C)C)N(C)C1=O` (some centres unmarked) [Compound 4], the inhibition constant (Ki) on Human CypD (setting [3]) was 11 nM. Besides, the 50% effective concentration (EC50) with permeabilized HepG2 (setting [4]) was 867 nM. In assay [1] (setting [5]), the half-maximal inhibitory concentration (IC50) stood at 1160 nM.
For `CC[C@@H]1NC(=O)[C@H]([C@H](O)[C@H](C)C/C=C/c2ccc(OC)cc2)N(C)C(=O)[C@H](C(C)C)N(C)C(=O)[C@H](CC(C)C)N(C)C(=O)[C@H](CC(C)C)N(C)C(=O)[C@@H](C)NC(=O)[C@H](C)NC(=O)[C@H](CC(C)C)N(C)C(=O)[C@H](C(C)C)NC(=O)[C@H](CC(C)C)N(C)C(=O)C(OCCN(C)C)N(C)C1=O` (some centres unmarked) [Compound 5], the results for the IC50 in assay [2] and in assay [1] (setting [5]) were 2430 nM and 2660 nM, respectively. Moreover, the Ki at Human CypD (setting [3]) was found to be 8.4 nM; at Human CypA it was 5.5 nM. Moreover, the EC50 with permeabilized HepG2 (setting [4]) is 623 nM.
Turning to `CC[C@@H]1NC(=O)[C@H]([C@H](O)[C@H](C)C/C=C/c2ccc3ccccc3c2)N(C)C(=O)[C@H](C(C)C)N(C)C(=O)[C@H](CC(C)C)N(C)C(=O)[C@H](CC(C)C)N(C)C(=O)[C@@H](C)NC(=O)[C@H](C)NC(=O)[C@H](CC(C)C)N(C)C(=O)[C@H](C(C)C)NC(=O)[C@H](CC(C)C)N(C)C(=O)C(OCCN(C)C)N(C)C1=O` (some centres unmarked) [Compound 6], at Human CypD (setting [3]), the inhibition constant Ki worked out at 6.5 nM. In addition, the concentration giving a half-maximal response (EC50) in the assay with permeabilized HepG2 (setting [4]) was 964 nM. Besides, the IC50 in assay [1] (setting [5]) is above 10000 nM.
